Data from patent US4820821A, “Novel pyridazinone-imines and their physiologically tolerated addition salts with acids, their preparation and therapeutic agents containing these compounds” (BASF Aktiengesellschaft, priority 1981, dated 1989).

Tests used:
[1] = system: reserpine-induced hypothermia / blood pressure; experiment: Quotient ED 50% antidepressive action / ED 20% hypertensive action; type: in vivo, mouse / rat; conditions: for Q (quotient ED 50% antidepressive action/ED 20% hypertensive action): hypertensive test i.v.
Text: This is evident from the fact that the quotient defined above differs wtih respect to the comparative compounds. […] This arises, inter alia, from the fact that the hypertensive ED 20 constitutes the denominator of the quotient. It is possible that the unforeseeable selective direction of action is attributable to the special substitution,in accordance with the invention, at the 4-imino group.

[2] = system: reserpine-induced hypothermia; experiment: Antidepressive action: reserpine antagonism, inhibition of reserpine-induced hypothermia of the mouse; type: in vivo, male Swiss mice; conditions: Table 1; for ED50: Mus musculus, oral administration 60 min before reserpine, dose based on the base, read-out: ED 50% (dose which inhibits the reserpine-induced hypothermia of the mouse by 50%); for R.A. (relative activity), reserpine antagonism: amezinium = 1.00, oral
Description: Antidepressants effect dose-dependent inhibition of this hypotherma. The test substances are administered orally 60 minutes before the administration of reserpine.
The dose which effects 50% inhibition of the reserpine-induced hypothermia is determined, as the ED 50%, from the linear regression between log dose (mg/kg) and relative reduction in hypothermia (Δ%).

blood pressure = experiment: Effect on the blood pressure: hypertensive action, pithed rat; type: in vivo, male Sprague-Dawley rats; conditions: Table 1, i.v. administration; for ED20: Rattus norvegicus, iv, dose based on the base, read-out: ED 20% hypertensive action (dose which increases the blood pressure of the pithed rat by 20%); for R.A. (relative activity), hypertensive action: amezinium = 1.00
Description: The measurement of the blood pressure in the carotid artery was carried out by means of Statham transducers. The substance was administered in the jugular vein (as an aqueous solution, 1 ml/kg) or intraperitoneally (as a tragacanth suspension, 2 ml/kg). The ED 20% is determined as the dose which increases the blood pressure by 20%.

With CCCNC(=O)N=c1ccn(-c2ccccc2)nc1 [Example 85, 1,4-dihydro-1-phenyl-4-[(propylcarbamyl)-imino]-pyridazine] the “factor by which the quotient of antidepressive action and hypertensive action is smaller than in the case of amezinium” value ([1]; compounds of Table 1) was 52, the “Q (quotient ED 50% antidepressive action/ED 20% hypertensive action)” value [1] was 0.28 and the ED50 [2] was 0.28 mg/kg. The “R.A. (relative activity), reserpine antagonism” value [2] was 2.62, the ED20 (blood pressure) was 1 mg/kg and the “R.A. (relative activity), hypertensive action” value (blood pressure) was 0.05.
With CNC(=S)N=c1ccn(-c2ccccc2)nc1 [Example 86, 1,4-dihydro-4-(methylthiocarbamyl)-imino-1-phenylpyridazine] the “Q (quotient ED 50% antidepressive action/ED 20% hypertensive action)” value [1] was < 2.1, the ED50 [2] was 2.1 mg/kg and the “R.A. (relative activity), reserpine antagonism” value [2] was 0.35. The ED20 (blood pressure) was > 1 mg/kg and the “R.A. (relative activity), hypertensive action” value (blood pressure) was < 0.05.
CCNC(=S)N=c1ccn(-c2ccccc2)nc1 [Example 87, 1,4-dihydro-4-(ethylthiocarbamyl)-imino-1-phenylpyridazine] was tested, and the “Q (quotient ED 50% antidepressive action/ED 20% hypertensive action)” value [1] was < 2.91, the ED50 [2] was 2.91 mg/kg and the “R.A. (relative activity), reserpine antagonism” value [2] was 0.25. The ED20 (blood pressure) was > 1 mg/kg and the “R.A. (relative activity), hypertensive action” value (blood pressure) was < 0.05.
